Laboratory results from PubChem BioAssay (NCI).
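Values below derive from 48-hour exposures of cells grown in 96-well plates, with endpoints linearly interpolated between the two concentrations bracketing the appropriate inhibition level. Definition used: TGI = concentration required for complete inhibition of growth.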

How the values were obtained:
Experiment in all cases: NCI tumour cell line growth inhibition, 48 h
HOP-18 NSCLC = system: HOP-18 NSCLC
UACC-62 melanoma = system: UACC-62 melanoma
NCI-H23 lung = system: NCI-H23 lung
DMS 273 small cell lung = system: DMS 273 small cell lung
SW-620 colon = system: SW-620 colon
SF-295 CNS = system: SF-295 CNS
OVCAR-5 ovarian = system: OVCAR-5 ovarian
OVCAR-4 ovarian = system: OVCAR-4 ovarian
IGROV1 ovarian = system: IGROV1 ovarian
A549 NSCLC = system: A549 NSCLC
RXF-631 renal = system: RXF-631 renal
RPMI-8226 leukemia = system: RPMI-8226 leukemia
M14 melanoma = system: M14 melanoma
HCC-2998 colon = system: HCC-2998 colon
SK-MEL-5 melanoma = system: SK-MEL-5 melanoma
CAKI-1 renal = system: CAKI-1 renal
CCRF-CEM leukemia = system: CCRF-CEM leukemia
SK-MEL-2 melanoma = system: SK-MEL-2 melanoma
XF 498 CNS = system: XF 498 CNS
NCI-H522 lung = system: NCI-H522 lung
SNB-78 CNS = system: SNB-78 CNS
COLO 205 colon = system: COLO 205 colon
SR leukemia = system: SR leukemia
SNB-19 CNS = system: SNB-19 CNS
RXF 393 renal = system: RXF 393 renal
HOP-92 NSCLC = system: HOP-92 NSCLC
HCT-116 colon = system: HCT-116 colon
HT29 colon = system: HT29 colon
U251 CNS = system: U251 CNS
SK-MEL-28 melanoma = system: SK-MEL-28 melanoma
786-0 renal = system: 786-0 renal
LOX IMVI melanoma = system: LOX IMVI melanoma
MOLT-4 leukemia = system: MOLT-4 leukemia
NCI-H460 lung = system: NCI-H460 lung
M19-MEL melanoma = system: M19-MEL melanoma
KM20L2 colon = system: KM20L2 colon
MALME-3M melanoma = system: MALME-3M melanoma
ACHN renal = system: ACHN renal
KM12 colon = system: KM12 colon
SN12C renal = system: SN12C renal
EKVX NSCLC = system: EKVX NSCLC
SF-539 CNS = system: SF-539 CNS
SF-268 CNS = system: SF-268 CNS
UACC-257 melanoma = system: UACC-257 melanoma
LXFL 529 NSCLC = system: LXFL 529 NSCLC
HOP-62 NSCLC = system: HOP-62 NSCLC
OVCAR-8 ovarian = system: OVCAR-8 ovarian
SK-OV-3 ovarian = system: SK-OV-3 ovarian
K-562 leukemia = system: K-562 leukemia
NCI-H226 lung = system: NCI-H226 lung
TK-10 renal = system: TK-10 renal
HCT-15 colon = system: HCT-15 colon
SNB-75 CNS = system: SNB-75 CNS
HL-60(TB) leukemia = system: HL-60(TB) leukemia
UO-31 renal = system: UO-31 renal
DLD-1 colon = system: DLD-1 colon
A498 renal = system: A498 renal
OVCAR-3 ovarian = system: OVCAR-3 ovarian
BT-549 breast = system: BT-549 breast
MDA-MB-435 = system: MDA-MB-435
PC-3 prostate = system: PC-3 prostate
T-47D breast = system: T-47D breast
DU-145 prostate = system: DU-145 prostate
MCF7 breast = system: MCF7 breast
MDA-N = system: MDA-N
DMS 114 small cell lung = system: DMS 114 small cell lung

CC(=O)c1ccc(NC(=O)C(=O)C(C(=O)/C=C/c2ccccc2)C2OC(=O)c3ccccc32)cc1 (stereo not given)
TGI (HOP-18 NSCLC): > 100 µM | TGI (UACC-62 melanoma): > 100 µM | TGI (NCI-H23 lung): > 100 µM | TGI (DMS 273 small cell lung): > 100 µM | TGI (SW-620 colon): > 100 µM | TGI (SF-295 CNS): > 100 µM | TGI (OVCAR-5 ovarian): > 100 µM | TGI (OVCAR-4 ovarian): > 100 µM | TGI (IGROV1 ovarian): > 100 µM | TGI (A549 NSCLC): > 100 µM | TGI (RXF-631 renal): > 100 µM | TGI (RPMI-8226 leukemia): > 100 µM | TGI (M14 melanoma): > 100 µM | TGI (HCC-2998 colon): > 100 µM | TGI (SK-MEL-5 melanoma): > 100 µM | TGI (CAKI-1 renal): > 100 µM | TGI (CCRF-CEM leukemia): > 100 µM | TGI (SK-MEL-2 melanoma): > 100 µM | TGI (XF 498 CNS): > 100 µM | TGI (NCI-H522 lung): > 100 µM | TGI (SNB-78 CNS): > 100 µM | TGI (COLO 205 colon): > 100 µM | TGI (SR leukemia): > 100 µM | TGI (SNB-19 CNS): > 100 µM | TGI (RXF 393 renal): > 100 µM | TGI (HOP-92 NSCLC): > 100 µM | TGI (HCT-116 colon): > 100 µM | TGI (HT29 colon): > 100 µM | TGI (U251 CNS): > 100 µM | TGI (SK-MEL-28 melanoma): > 100 µM | TGI (786-0 renal): > 100 µM | TGI (LOX IMVI melanoma): > 100 µM | TGI (MOLT-4 leukemia): > 100 µM | TGI (NCI-H460 lung): > 100 µM | TGI (M19-MEL melanoma): > 100 µM | TGI (KM20L2 colon): > 100 µM | TGI (MALME-3M melanoma): > 100 µM | TGI (ACHN renal): > 100 µM | TGI (KM12 colon): > 100 µM | TGI (SN12C renal): > 100 µM | TGI (EKVX NSCLC): > 100 µM | TGI (SF-539 CNS): > 100 µM | TGI (SF-268 CNS): > 100 µM | TGI (UACC-257 melanoma): > 100 µM | TGI (LXFL 529 NSCLC): > 100 µM | TGI (HOP-62 NSCLC): > 100 µM | TGI (OVCAR-8 ovarian): > 100 µM | TGI (SK-OV-3 ovarian): > 100 µM | TGI (K-562 leukemia): > 100 µM | TGI (NCI-H226 lung): > 100 µM | TGI (TK-10 renal): > 100 µM | TGI (HCT-15 colon): > 100 µM | TGI (SNB-75 CNS): > 100 µM | TGI (HL-60(TB) leukemia): > 100 µM | TGI (UO-31 renal): > 100 µM | TGI (DLD-1 colon): > 100 µM | TGI (A498 renal): > 100 µM

CCCC(=O)N[C@H]1CCc2cc(OC)c(OC)c(OC)c2-c2ccc(SC)c(=O)cc21
TGI (HOP-18 NSCLC): > 100 µM | TGI (OVCAR-3 ovarian): < 0.0423 µM | TGI (BT-549 breast): < 0.01 µM | TGI (UACC-62 melanoma): > 100 µM | TGI (NCI-H23 lung): 2.18 µM | TGI (DMS 273 small cell lung): > 100 µM | TGI (SW-620 colon): > 100 µM | TGI (SF-295 CNS): < 0.01 µM | TGI (OVCAR-5 ovarian): > 100 µM | TGI (OVCAR-4 ovarian): > 100 µM | TGI (IGROV1 ovarian): > 100 µM | TGI (A549 NSCLC): > 100 µM | TGI (RXF-631 renal): 1.42 µM | TGI (RPMI-8226 leukemia): > 100 µM | TGI (M14 melanoma): 34.7 µM | TGI (HCC-2998 colon): > 4.64 µM | TGI (SK-MEL-5 melanoma): < 0.0989 µM | TGI (CAKI-1 renal): 14.1 µM | TGI (CCRF-CEM leukemia): > 100 µM | TGI (MDA-MB-435): < 0.01 µM | TGI (NCI-H522 lung): < 0.01 µM | TGI (SNB-78 CNS): > 100 µM | TGI (PC-3 prostate): > 100 µM | TGI (COLO 205 colon): < 0.01 µM | TGI (SR leukemia): > 100 µM | TGI (SNB-19 CNS): > 94.6 µM | TGI (T-47D breast): > 100 µM | TGI (HOP-92 NSCLC): 2.51 µM | TGI (DU-145 prostate): < 0.01 µM | TGI (HCT-116 colon): 0.176 µM | TGI (HT29 colon): 0.724 µM | TGI (U251 CNS): 3.74 µM | TGI (SK-MEL-28 melanoma): > 100 µM | TGI (786-0 renal): 63.1 µM | TGI (LOX IMVI melanoma): > 100 µM | TGI (MOLT-4 leukemia): > 66.2 µM | TGI (NCI-H460 lung): 0.0522 µM | TGI (MCF7 breast): > 100 µM | TGI (M19-MEL melanoma): > 100 µM | TGI (KM20L2 colon): < 0.01 µM | TGI (MALME-3M melanoma): > 100 µM | TGI (ACHN renal): > 57.1 µM | TGI (KM12 colon): < 0.01 µM | TGI (SN12C renal): > 91.8 µM | TGI (EKVX NSCLC): > 100 µM | TGI (SF-539 CNS): < 0.01 µM | TGI (SF-268 CNS): 62.7 µM | TGI (UACC-257 melanoma): > 74.1 µM | TGI (MDA-N): < 0.01 µM | TGI (DMS 114 small cell lung): < 0.01 µM | TGI (LXFL 529 NSCLC): > 100 µM | TGI (HOP-62 NSCLC): > 91.2 µM | TGI (OVCAR-8 ovarian): > 15.8 µM | TGI (SK-OV-3 ovarian): 5.75 µM | TGI (K-562 leukemia): > 100 µM | TGI (NCI-H226 lung): 0.215 µM | TGI (TK-10 renal): 99.9 µM | TGI (HCT-15 colon): > 100 µM | TGI (SNB-75 CNS): 15.6 µM | TGI (HL-60(TB) leukemia): < 0.01 µM | TGI (UO-31 renal): > 100 µM | TGI (DLD-1 colon): > 100 µM | TGI (A498 renal): 0.39 µM

COC(=O)C(=O)C(CC(=O)Nc1ccc(C)cc1)C(=O)OC (stereo not given)
TGI (HOP-18 NSCLC): > 100 µM | TGI (OVCAR-3 ovarian): > 100 µM | TGI (UACC-62 melanoma): > 100 µM | TGI (NCI-H23 lung): > 100 µM | TGI (SW-620 colon): > 100 µM | TGI (SF-295 CNS): > 100 µM | TGI (OVCAR-5 ovarian): > 100 µM | TGI (OVCAR-4 ovarian): > 100 µM | TGI (IGROV1 ovarian): > 100 µM | TGI (A549 NSCLC): > 100 µM | TGI (RXF-631 renal): > 100 µM | TGI (RPMI-8226 leukemia): > 100 µM | TGI (M14 melanoma): > 100 µM | TGI (HCC-2998 colon): > 100 µM | TGI (SK-MEL-5 melanoma): > 100 µM | TGI (CAKI-1 renal): > 100 µM | TGI (CCRF-CEM leukemia): > 100 µM | TGI (SK-MEL-2 melanoma): > 100 µM | TGI (XF 498 CNS): > 100 µM | TGI (NCI-H522 lung): > 100 µM | TGI (SNB-78 CNS): > 100 µM | TGI (SR leukemia): > 100 µM | TGI (SNB-19 CNS): > 100 µM | TGI (RXF 393 renal): > 100 µM | TGI (HOP-92 NSCLC): > 100 µM | TGI (HCT-116 colon): > 100 µM | TGI (HT29 colon): > 100 µM | TGI (U251 CNS): > 100 µM | TGI (SK-MEL-28 melanoma): > 100 µM | TGI (786-0 renal): > 100 µM | TGI (LOX IMVI melanoma): > 100 µM | TGI (MOLT-4 leukemia): > 100 µM | TGI (NCI-H460 lung): > 100 µM | TGI (M19-MEL melanoma): > 100 µM | TGI (KM20L2 colon): > 100 µM | TGI (MALME-3M melanoma): > 100 µM | TGI (ACHN renal): > 100 µM | TGI (KM12 colon): > 100 µM | TGI (SN12C renal): > 100 µM | TGI (EKVX NSCLC): > 100 µM | TGI (SF-539 CNS): > 100 µM | TGI (SF-268 CNS): > 100 µM | TGI (UACC-257 melanoma): > 100 µM | TGI (DMS 114 small cell lung): > 100 µM | TGI (LXFL 529 NSCLC): > 100 µM | TGI (HOP-62 NSCLC): > 100 µM | TGI (OVCAR-8 ovarian): > 100 µM | TGI (SK-OV-3 ovarian): > 100 µM | TGI (K-562 leukemia): > 100 µM | TGI (NCI-H226 lung): > 100 µM | TGI (TK-10 renal): > 100 µM | TGI (HCT-15 colon): > 100 µM | TGI (HL-60(TB) leukemia): > 100 µM | TGI (UO-31 renal): > 100 µM | TGI (DLD-1 colon): > 100 µM
